In patent publication EP0728012B1, “NOVEL GnRH ANALOGUES WITH ANTITUMOUR EFFECTS AND PHARMACEUTICAL COMPOSITIONS THEREOF” (Lovas, Sandor, priority 1994, dated 1996):
Non-standard residues stand in square brackets, D forms with d. Residues, ends and D or L forms follow the SMILES beside them. dPhe(4-Cl) = N[C@H](Cc1ccc(Cl)cc1)C(=O)O; pGlu = O=C1CC[C@@H](C(=O)O)N1

Key:
MDA-MB-231 [1] = experiment: Inhibition of colony formation by GnRH analogues (dose-survival, Example 48); type: cell-based, human
Method: (§1) The examination gives accurate information about the cell-damaging effect of the substance tested as a function of varying doses. The treatment was carried out once; the colonies formed from the surviving cells were counted after 8 - 12 days. […] A part of the arrested cells again entered the cycle, another part of them might be destroyed (apoptosis). […] In the case of a dose-response investigation, colonies containing less than 15 cells were not counted. 300 cells were put into each Petri dishes of 3.5 cm in diameter. The treatment was once carried out 24 hours after setting, then the colonies formed were counted after 8 - 12 days. The cells were treated once after 24 hours with 1-50 µM of various GnRH analogues of Examples above or with 1 - 50 µM of GnRH-III, respectively. The percentages of inhibition obtained on MCF-7, MDA-MB-231, PC3 and Ishikawa cells, respectively, together with the dose of the active agent used are shown in Table VIII.

MCF-7 [2] = experiment: as above; type: cell-based, human; details: treated once
Method: as §1

PC3 [3] = experiment: as above; type: cell-based, human; details: for % Inhibition of the colony formation: 50 µM
Method: as §1

Ishikawa [4] = experiment: as above; type: cell-based, human; details: 50 µM
Method: as §1

human tumour cell lines [5] = type: cell-based; details: 30 µM
Method: (§2) After being treated with trypsin, 300.000 each of MCF-7, MDA-MB-231, PC3 or Ishikawa cells, respectively, were passed into Petri dishes of 10 cm in diameter. Starting from the day following the setting, the cells were treated with 1-50 µM of the GnRH analogue in the exponential growth phase. During the experiment lasting for 5 days, the cells were treated in every two days with the peptide hormone dissolved in the nutrient medium, then the cell count was determined on the sixth day.

human tumour cell lines [6] = experiment: Inhibition of colony formation (Example 48), comparison with the control D-Trp^6-hGnRH; type: cell-based; details: data of Table VIII
Method: as §1
In these studies the D-Trp^6-hGnRH analogue (Sigma Co.) commonly used in the tumour therapy was employed as control.

MXT mouse mammary tumour = experiment: In vivo antitumour effect on mice bearing MXT mouse mammary tumour; parameters: species or system CBA/Ca mice
Method: The MXT mouse mammary carcinoma contains ER and PgR proteins; furthermore, it contains also GnRH receptors; therefore, this in vivo tumour model is suitable for studying both the direct and indirect effects. The treatment of mice bearing MXT mammary tumour was commenced on the day following transplantation. […] Table VI The animals were daily treated in s.c. route starting from the day following transplantation of MXT mouse mammary tumour. […] MI-1544: 75 µg/day/animal; MI-1892: 75 µg/day/animal.

PC3 [7] = experiment: In vitro inhibition of cell proliferation (Example 19); type: cell-based, human; details: for inhibition of proliferation: 30 µM, peptide alone, two treatments on days 2 and 4
Method: (§3) The procedure of treatment was as follows. After trypsinization the cells, 400,000 cells of MCF-7, MDA-MB-231 human mammary carcinoma, PC3 human prostate carcinoma or Ishikawa human endometrium tumour each were passed into Petri dishes of 10 cm in diameter. Starting from the day following transfer, the cells were treated with the substances to be tested in solution prepared with the nutrient medium during the exponential growth phase. The cultures were treated with 1 to 50 µM (calculated for the total volume of the culture) or MI-1544 GnRH antagonist, MI-1892 chicken GnRH antagonist or SJ-1004 GnRH antagonist analogues as well as synthetic lamprey GnRH-III hormone every two days and the cell count was determined on the 7th day.

[8] = test system: MDA-MB-231 human mammary carcinoma cell line; experiment: Inhibition of colony formation (dose-survival relation, Example 18); type: cell-based
Method: (§4) In the case of cytostatics the cell-damaging effect is not cell-specific. […] One part of the arrested cells again go into the cycle, the other part may perish (apoptosis). […] The investigations were carried out on MCF-7 and MDA-MB-231 human mammary carcinoma cell lines, PC3 human prostate 15 carcinoma cell line and Ishikawa human endometrium carcinoma cell line. Three hundred cells were set into Petri dishes of 3.5 cm in diameter each. The treatment was carried out once, 24 hours following the explantation, then the colonies formed were counted after 9 to 12 days.

[9] = test system: Ishikawa human endometrium carcinoma cell line; experiment: as above; type: cell-based
Method: as §4

[10] = test system: PC3 human prostate carcinoma cell line; experiment: as above; type: cell-based
Method: as §4

[11] = test system: MCF-7 human mammary carcinoma cell line; experiment: as above; type: cell-based; details: treated once
Method: as §4

Ishikawa [12] = test system: Ishikawa
Method: as §3, with “antagonist analogues as well as synthetic lamprey GnRH-III hormone every two days and the cell count was determined” left out

MDA-MB-231 [13] = test system: MDA-MB-231
Method: (§5) The procedure of treatment was as follows. After trypsinization the cells, 400,000 cells of MCF-7, MDA-MB-231 human mammary carcinoma, PC3 human prostate carcinoma or Ishikawa human endometrium tumour each were passed into Petri dishes of 10 cm in diameter. Starting from the day following transfer, the cells were treated with the substances to be tested in solution prepared with the nutrient medium during the exponential growth phase. […]

MCF-7 [14] = test system: MCF-7
Method: as §5

MDA-MB-231 [15] = type: cell-based, human; details: MDA-MB-231 ER-negative; after 6 days' treatment; dose not stated
Method: as §2

MCF-7 [16] = type: cell-based, human; details: MCF-7 ER-positive; after 6 days' treatment; dose not stated
Method: as §2

[17] = MXT mouse mammary tumour, Treatment weeks: 13, 1x75 µg daily s.c.
[18] = MXT mouse mammary tumour, Treatment weeks: 20, 1x75 µg daily s.c.
[19] = 30 µM active substance, conjugate, treated once

Molecule: CC(=O)NCCCC[C@H](NC(=O)[C@H](Cc1c[nH]c2ccccc12)NC(=O)[C@H](Cc1c[nH]cn1)NC(=O)[C@@H]1CCC(=O)N1)C(=O)N[C@@H](Cc1c[nH]cn1)C(=O)N[C@@H](CC(=O)O)C(=O)N[C@@H](Cc1c[nH]c2ccccc12)C(=O)N[C@@H](CCCCN)C(=O)N1CCC[C@H]1C(=O)NCC(N)=O [7. [Lys(ε-AC)]^4 GnRH-III, [Lys(î-Ac)]^4 -GnRH-III]
- % Inhibition of the colony formation (MDA-MB-231 [1]; 10 µM): 31%
- % Inhibition of the colony formation (MDA-MB-231 [1]; 50 µM): 42%
- % Inhibition of the colony formation (MDA-MB-231 [1]; 50 µM, listed as Example 32, 50 µM): 35-42%
- % Inhibition of the colony formation (MCF-7 [2]; 10 µM): 40%
- % Inhibition of the colony formation (MCF-7 [2]; 50 µM): 52%
- % Inhibition of the colony formation (PC3 [3]): 0%
- inhibition of colony formation (PC3 [3]; within the dose range used (1-50 µM)): did not influence
- % Inhibition of the colony formation (Ishikawa [4]): 14%
- proliferation-inhibiting effect (human tumour cell lines [5]): 27-31%
- inhibitory effect compared with the control D-Trp^6-hGnRH (human tumour cell lines [6]): exceeded the inhibitory effect of control

Molecule: CC(=O)N[C@H](Cc1c[nH]c2ccccc12)C(=O)N[C@H](Cc1ccc(Cl)cc1)C(=O)N[C@H](Cc1c[nH]c2ccccc12)C(=O)N[C@@H](CO)C(=O)N[C@@H](Cc1ccc(O)cc1)C(=O)N[C@H](CCCCN)C(=O)N[C@@H](CC(C)C)C(=O)N[C@@H](CCCNC(=N)N)C(=O)N1CCC[C@H]1C(=O)N[C@H](C)C(N)=O [MI-1544, Ac-D-Trp^1,3,D-Cpa^2,D-Lys^6,D-Ala^10-hGnRH, reference compound] (Ac-[dW][dPhe(4-Cl)][dW]SY[dK]LRP[dA]-NH2)
- Inhibition % (MXT mouse mammary tumour; [17]): 46%
- Tumour volume as control (%) (MXT mouse mammary tumour; [17]): 54%
- Inhibition % (MXT mouse mammary tumour; [18]): 46%
- Tumour volume as control (%) (MXT mouse mammary tumour; [18]): 54%
- Tumour volume (cm^3) (MXT mouse mammary tumour; day 9, 75 µg/day/animal s.c.): 0.44 cm^3
- Tumour volume as control (%) (MXT mouse mammary tumour; day 9, 75 µg/day/animal s.c.): 63%
- Tumour volume (cm^3) (MXT mouse mammary tumour; day 11, 75 µg/day/animal s.c.): 1.03 cm^3
- Tumour volume as control (%) (MXT mouse mammary tumour; day 11, 75 µg/day/animal s.c.): 57%
- Tumour volume (cm^3) (MXT mouse mammary tumour; day 13, 75 µg/day/animal s.c.): 1.74 cm^3
- Tumour volume as control (%) (MXT mouse mammary tumour; day 13, 75 µg/day/animal s.c.): 54%
- Tumour volume (cm^3) (MXT mouse mammary tumour; day 17, 75 µg/day/animal s.c.): 2.63 cm^3
- Tumour volume as control (%) (MXT mouse mammary tumour; day 17, 75 µg/day/animal s.c.): 51%
- Tumour volume (cm^3) (MXT mouse mammary tumour; day 18, 75 µg/day/animal s.c.): 3.94 cm^3
- Tumour volume as control (%) (MXT mouse mammary tumour; day 18, 75 µg/day/animal s.c.): 53%
- Tumour volume (cm^3) (MXT mouse mammary tumour; day 20, 75 µg/day/animal s.c.): 5.02 cm^3
- Tumour volume as control (%) (MXT mouse mammary tumour; day 20, 75 µg/day/animal s.c.): 54%
- Tumour volume (cm^3) (MXT mouse mammary tumour; day 24, 75 µg/day/animal s.c.): 6.08 cm^3
- Tumour volume as control (%) (MXT mouse mammary tumour; day 24, 75 µg/day/animal s.c.): 48%
- Tumour volume (cm^3) (MXT mouse mammary tumour; day 26, 75 µg/day/animal s.c.): 8.42 cm^3
- Tumour volume as control (%) (MXT mouse mammary tumour; day 26, 75 µg/day/animal s.c.): 60%
- inhibition of proliferation (PC3 [7]): 24%
- % Inhibition of colony formation ([8]; 50 µM): 20%
- % Inhibition of colony formation ([9]; 50 µM): 5%
- % Inhibition of colony formation ([10]; 50 µM): 20%
- % Inhibition of colony formation ([11]; 50 µM (active substance)): 45%
- inhibition of proliferation (Ishikawa [12]; 30 µM, peptide alone, two treatments on days 2 and 4): 8%

Molecule: CC(C)C[C@H](NC(=O)[C@@H](CCCCN)NC(=O)[C@H](Cc1ccc(O)cc1)NC(=O)[C@H](CO)NC(=O)[C@@H](Cc1c[nH]c2ccccc12)NC(=O)[C@@H](Cc1ccccc1)NC(=O)[C@@H]1CCC(=O)N1)C(=O)N[C@@H](CCCNC(=N)N)C(=O)N1CCC[C@H]1C(=O)NCC(N)=O [SJ-1004, D-Phe^2,D-Trp^3,D-Lys^6-hGnRH, reference compound] ([pGlu][dF][dW]SY[dK]LRPG-NH2)
- inhibition of proliferation (PC3 [7]): 10%
- % Inhibition of colony formation ([8]; 50 µM): 26%
- % Inhibition of colony formation ([9]; 50 µM): 5%
- % Inhibition of colony formation ([10]; 50 µM): 0%
- % Inhibition of colony formation ([11]; 50 µM (active substance)): 31%
- inhibition of proliferation (decrease in cell count) (MDA-MB-231 [13]; MDA-MB-231 (10% FCS), 30 µM, peptide alone, treated every two days (two treatments)): 23%
- inhibition of proliferation (decrease in cell count) (MCF-7 [14]; MCF-7 (10% FCS), 30 µM, peptide alone, treated every two days (two treatments, days 2 and 4)): 17%

Molecule: D-Phe^2,D-Trp^3,{D-Lys[n-poly(N-vinylpyrrolidone-co-maleic acid)-Gly-Phe-Leu-Gly]}^6,-GnRH [P-GFLG-1004]
- % Inhibition of the colony formation (PC3 [3]): 31%
- % Inhibition of cell division (proliferation) (PC3 [7]; [19]): 35%
- % Inhibition of colony formation ([8]; 10 µM): 62%
- % Inhibition of colony formation ([8]; 50 µM, listed as 8. P-GFLG-1004, 50 µM): 92%
- % Inhibition of colony formation ([9]; 10 µM): 3%
- % Inhibition of colony formation ([9]; 50 µM): 46%
- % Inhibition of colony formation ([10]; 30 µM): 100%
- % Inhibition of colony formation ([10]; 50 µM): 100%
- % Inhibition of colony formation ([11]; 10 µM (active substance)): 75%
- % Inhibition of colony formation ([11]; 50 µM (active substance), listed as 8. P-GFLG-1004, 50 µM): 95%
- % Inhibition of cell division (proliferation) (MDA-MB-231 [13]; MDA-MB-231, 30 µM active substance, conjugate, treated once, listed as 8. P-GFLG-1004): 68%
- % Inhibition of cell division (proliferation) (MCF-7 [14]; MCF-7, 30 µM active substance, conjugate, treated once, cell count on 7th day, listed as 8. P-GFLG-1004): 63%
- % Inhibition of cell division (proliferation) (Ishikawa [12]; [19]): 20%

Molecule: D-Phe^6-GnRH(1-9)-ethylamide [Ovurelin]
- inhibition of cell proliferation (MDA-MB-231 [15]): 25-30%
- inhibition (change in the cell count) (MCF-7 [16]): 5-15%

Molecule: [D-Ser(tBu)]^6,desGly^10-hGnRH(1-9)EA [Buserelin]
- inhibition of cell proliferation (MDA-MB-231 [15]): 25-30%
- inhibition (change in the cell count) (MCF-7 [16]): 5-15%
